From PubChem BioAssay (NCI)
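How tested: cells in 96-well plates exposed to compound for 48 hours at five concentrations. TGI is the concentration that stops growth completely.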

Assays:
Test in all cases: NCI-60 cell line screen, 48 h
[1] = test system: HOP-62 NSCLC
[2] = test system: A498 renal
[3] = test system: SNB-75 CNS
[4] = test system: BT-549 breast
[5] = test system: SN12C renal
[6] = test system: DU-145 prostate
[7] = test system: NCI/ADR-RES ovarian
[8] = test system: K-562 leukemia
[9] = test system: SF-295 CNS
[10] = test system: SR leukemia
[11] = test system: SF-268 CNS
[12] = test system: UACC-257 melanoma
[13] = test system: SW-620 colon
[14] = test system: MDA-MB-231 breast
[15] = test system: OVCAR-4 ovarian
[16] = test system: IGROV1 ovarian
[17] = test system: MOLT-4 leukemia
[18] = test system: 786-0 renal
[19] = test system: RPMI-8226 leukemia
[20] = test system: HCT-116 colon
[21] = test system: PC-3 prostate
[22] = test system: ACHN renal
[23] = test system: NCI-H226 lung
[24] = test system: MDA-MB-435
[25] = test system: TK-10 renal
[26] = test system: HL-60(TB) leukemia
[27] = test system: SK-OV-3 ovarian
[28] = test system: KM12 colon
[29] = test system: COLO 205 colon
[30] = test system: A549 NSCLC
[31] = test system: UO-31 renal
[32] = test system: LOX IMVI melanoma
[33] = test system: EKVX NSCLC
[34] = test system: NCI-H460 lung
[35] = test system: RXF 393 renal
[36] = test system: OVCAR-8 ovarian
[37] = test system: HCC-2998 colon
[38] = test system: HS 578T breast
[39] = test system: SK-MEL-5 melanoma
[40] = test system: SNB-19 CNS
[41] = test system: NCI-H522 lung
[42] = test system: CAKI-1 renal
[43] = test system: MALME-3M melanoma
[44] = test system: MDA-N
[45] = test system: OVCAR-3 ovarian
[46] = test system: SF-539 CNS
[47] = test system: NCI-H23 lung
[48] = test system: MCF7 breast
[49] = test system: SK-MEL-28 melanoma
[50] = test system: HCT-15 colon
[51] = test system: HOP-92 NSCLC
[52] = test system: OVCAR-5 ovarian
[53] = test system: UACC-62 melanoma
[54] = test system: SK-MEL-2 melanoma
[55] = test system: M14 melanoma
[56] = test system: U251 CNS
[57] = test system: HT29 colon

Compound `O=c1c2cc(I)ccc2nc(Sc2ccc([N+](=O)[O-])cc2[N+](=O)[O-])n1Cc1ccccc1` has a TGI [1] of 12.3 µM, a TGI [2] of 21.3 µM and a TGI [3] of 16.7 µM. It also gave a TGI [4] of 9.46 µM, a TGI [5] of 2.95 µM and a TGI [6] of 12.7 µM. For the same compound, the TGI [7] was 5.44 µM, the TGI [8] was > 100 µM and the TGI [9] was 35.3 µM. The TGI [10] was > 100 µM, the TGI [11] was 3.77 µM and the TGI [12] was 15.4 µM. The TGI [13] was > 100 µM, the TGI [14] was 16.9 µM and the TGI [15] was 15.6 µM. The TGI [16] was 6.42 µM, the TGI [17] was > 100 µM and the TGI [18] was 2.25 µM. The TGI [19] was > 20.1 µM, the TGI [20] was 2.71 µM and the TGI [21] was 13.8 µM. It also gave a TGI [22] of 26.1 µM, a TGI [23] of 10.3 µM and a TGI [24] of 5.35 µM. For the same compound, the TGI [25] was 20.7 µM, the TGI [26] was 5.5 µM and the TGI [27] was > 56.8 µM. For the same compound, the TGI [28] was > 31.2 µM, the TGI [29] was 17.2 µM and the TGI [30] was > 85 µM. It also gave a TGI [31] of 4.13 µM, a TGI [32] of 2.89 µM and a TGI [33] of 17.4 µM. It also gave a TGI [34] of 29 µM, a TGI [35] of 12.4 µM and a TGI [36] of 4.58 µM. The TGI [37] was 11.1 µM, the TGI [38] was > 36.1 µM and the TGI [39] was 17.8 µM. For the same compound, the TGI [40] was 20.4 µM, the TGI [41] was 2.57 µM and the TGI [42] was 24.7 µM. It also gave a TGI [43] of 17.1 µM, a TGI [44] of 3.89 µM and a TGI [45] of 4.87 µM. For the same compound, the TGI [46] was 4.09 µM, the TGI [47] was 14.2 µM and the TGI [48] was 5.59 µM. For the same compound, the TGI [49] was 35.2 µM, the TGI [50] was 3.82 µM and the TGI [51] was 8.56 µM. It also gave a TGI [52] of 22.7 µM, a TGI [53] of 7.24 µM and a TGI [54] of 3.73 µM. It also gave a TGI [55] of 5.31 µM, a TGI [56] of 13.2 µM and a TGI [57] of 13.6 µM.
